pIC50: −log10 of the molar value.
Columns and labels:
U87/GFP = experiment: In vitro combination therapy of F cells + 5-FC with irinotecan (isobologram); type: cell-based; settings: 144 h; U87/GFP co-cultured with F cells (MSC/CD), 6 days; read-out: IC50 values obtained by treatment alone
Protocol: 10,000 U87/GFP and 10,000 F cells (MSC/CD) were cultured in a 12-well plate. From the next day, the cells were treated with Irinotecan (Sigma) at a concentration of 0 to 30 μM and the prodrug 5-FC at a concentration of 0 to 300 μM, and cultured for 6 days while replacing with a new medium containing the drug once every two days. On the 7th day, the culture solution was removed, 200 μl of 1× passive lysis buffer was then added to each well, and each well was allowed to stand at 4° C. for 10 minutes. The cell lysate was collected and centrifuged at 12,000 rpm for 5 minutes to obtain supernatant. 100 μl of the supernatant was transferred to a black 96-well plate in which light is blocked, and the intensity of fluorescence was measured under conditions of excitation 488 nm and emission 530 nm using a fluorimeter (GEMINI EM).

[1] = system: U87MG glioma cells expressing LacZ; experiment: In vivo combination therapy with temozolomide, orthotopic brain tumor model; settings: survival measured up to 90 days
Protocol: On the 6th days after transplantation of U87MG glioma cells expressing LacZ, the F cells prepared in Preparation Example 2 were suspended in a Plasma Solution A, followed by centrifugation at 500×g for 5 minutes. The supernatant was discarded, and the washing procedure was repeated twice. Then, the cell suspension was prepared to have a concentration of 3×10^5/6 μl. The cell suspension was transplanted at a rate of 0.3 μl/min at the brain coordinates of AP=+0.5 mm, ML=−1.8 mm, and DV=−3 mm. From the next day after the cell transplantation, 5-FC (15 mg/ml physiological saline) was intraperitoneally injected at a dose of 500 mg/kg for one week. […] On 28th day, brain tissues were obtained from 8 animals in each animal group and X-gal staining was performed in the same manner as in Example 2 to measure the size of brain tumor.

| pIC50 (U87/GFP) | Structure (SMILES) | median survival [1] |
| --- | --- | --- |
| 4.13 | Nc1nc(=O)[nH]cc1F [5-FC, 5-fluorocytosine] |  |
| 5.49 | CCc1c2c(nc3ccc(OC(=O)N4CCC(N5CCCCC5)CC4)cc13)-c1cc3c(c(=O)n1C2)COC(=O)[C@]3(O)CC [irinotecan] |  |
|  | Cn1nnc2c(C(N)=O)ncn2c1=O [temozolomide] | 42 days |

From US20240360417A1, “CELL THERAPEUTIC AGENT FOR CANCER TREATMENT AND COMBINATION THERAPY WITH SAME” (Cell&Brain Co., Ltd, priority 2015, published 2024)
